Source: ChEMBL document CHEMBL1140434, “1,2,4-Triazolo[1,5-a]quinoxaline as a versatile tool for the design of selective human A3 adenosine receptor antagonists: synthesis, biological evaluation, and molecular modeling studies of 2-(hetero)aryl- and 2-carboxy-substituted derivatives” (J Med Chem, 2005)

Columns and labels:
[1] = tested on: Adenosine receptor A2a (Bos taurus); test: Percentage inhibition of [3H]CGS 21680 binding to adenosine A2A receptor in bovine striatal membranes at 20 uM; settings: Striatum, Membrane
[2] = biological target: T1, Adenosine receptor A3 (Homo sapiens) (UniProt P0DMS8); test: Percentage inhibition of [125I]AB-MECA binding to human adenosine A3 receptor expressed in CHO cells at 1 uM; type: cell-based
T1 sequence (whole entry): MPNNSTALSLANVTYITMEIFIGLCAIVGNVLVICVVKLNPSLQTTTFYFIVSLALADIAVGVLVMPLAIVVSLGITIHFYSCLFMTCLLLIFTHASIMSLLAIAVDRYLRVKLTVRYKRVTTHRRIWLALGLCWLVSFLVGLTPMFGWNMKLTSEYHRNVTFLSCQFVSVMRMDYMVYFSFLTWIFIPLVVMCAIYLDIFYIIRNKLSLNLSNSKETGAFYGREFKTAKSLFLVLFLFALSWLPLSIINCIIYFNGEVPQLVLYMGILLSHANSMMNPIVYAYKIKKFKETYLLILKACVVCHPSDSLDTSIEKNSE

[3] = biological target: T2, Adenosine receptor A1 (Bos taurus) (UniProt P28190); test: Percentage inhibition of [3H]CHA binding to adenosine A1 receptor in bovine cerebral cortical membranes at 10 uM; type: cell membranes
T2 sequence (whole entry): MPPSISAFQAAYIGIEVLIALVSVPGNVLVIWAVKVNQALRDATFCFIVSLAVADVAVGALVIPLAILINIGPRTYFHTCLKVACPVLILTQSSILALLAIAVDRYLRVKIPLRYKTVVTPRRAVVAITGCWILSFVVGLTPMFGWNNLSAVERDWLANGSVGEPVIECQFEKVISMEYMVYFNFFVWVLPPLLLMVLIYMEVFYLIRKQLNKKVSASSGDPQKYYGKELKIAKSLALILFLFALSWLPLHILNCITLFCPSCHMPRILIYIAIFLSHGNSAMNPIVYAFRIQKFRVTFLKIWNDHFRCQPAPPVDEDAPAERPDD

Adenosine receptor A3 = biological target: T3, Adenosine receptor A3 (Homo sapiens, UniProt P0DMS8); test: Displacement of [125I]AB-MECA from human adenosine A3 receptor expressed in CHO cells; type: cell-based
T3 sequence (P0DMS8 whole entry): T1 sequence (whole entry)

Adenosine receptor A1 [4] = biological target: T4, Adenosine receptor A1 (Bos taurus, UniProt P28190); test: Displacement of [3H]CHA from adenosine A1 receptor in bovine cerebral cortical membranes; type: cell membranes
T4 sequence (P28190 whole entry): T2 sequence (whole entry)

Adenosine receptor A1 [5] = biological target: T5, Adenosine receptor A1 (Homo sapiens, UniProt P30542); test: Displacement of [3H]CHA from cloned human adenosine A1 receptor expressed in CHO cells; type: cell-based
T5 sequence (P30542 whole entry): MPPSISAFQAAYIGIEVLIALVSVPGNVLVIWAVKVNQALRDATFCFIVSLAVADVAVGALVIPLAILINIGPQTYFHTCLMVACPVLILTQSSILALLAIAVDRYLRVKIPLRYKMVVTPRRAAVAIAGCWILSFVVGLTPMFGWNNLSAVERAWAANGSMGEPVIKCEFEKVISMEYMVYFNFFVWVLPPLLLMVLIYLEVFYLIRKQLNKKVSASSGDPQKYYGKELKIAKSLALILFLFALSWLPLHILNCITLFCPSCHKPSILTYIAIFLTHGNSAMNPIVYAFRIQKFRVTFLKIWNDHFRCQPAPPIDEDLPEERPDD

[6] = biological target: Adenosine receptors; A1 & A3 (Homo sapiens) (UniProt P30542+P0DMS8); test: Selectivity for human adenosine A3 receptor over human adenosine A1 receptor; type: protein assay
[7] = tested on: Adenosine receptor A2a (Bos taurus); test: Percentage inhibition of [3H]CGS 21680 binding to adenosine A2A receptor in bovine striatal membranes at 34 uM; settings: Striatum, Membrane
[8] = biological target: Adenosine receptor A2a (Homo sapiens) (UniProt P29274); test: Percentage inhibition of [3H]NECA binding to cloned human adenosine A2A receptor expressed in CHO cells at 10 uM; type: cell-based
[9] = biological target: T2, Adenosine receptor A1 (Bos taurus); test: Percentage inhibition of [3H]CHA binding to adenosine A1 receptor in bovine cerebral cortical membranes at 34 uM; type: cell membranes
[10] = Selectivity for human adenosine A3 receptor over human adenosine A2A receptor
[11] = biological target: Adenosine receptor A2a (Bos taurus); test: Displacement of [3H]CGS 21680 from adenosine A2A receptor in bovine striatal membranes
[12] = biological target: T6, Adenosine receptor A1 (Homo sapiens) (UniProt P30542); test: Percentage inhibition of [3H]CHA binding to cloned human adenosine A1 receptor expressed in CHO cells at 10 uM; type: cell-based
T6 sequence (whole entry): T5 sequence (P30542 whole entry)

[13] = biological target: T2, Adenosine receptor A1 (Bos taurus); test: Percentage inhibition of [3H]CHA binding to adenosine A1 receptor in bovine cerebral cortical membranes at 20 uM; type: cell membranes

Adenosine receptor A2a (Homo sapiens), sequence (P29274 whole entry): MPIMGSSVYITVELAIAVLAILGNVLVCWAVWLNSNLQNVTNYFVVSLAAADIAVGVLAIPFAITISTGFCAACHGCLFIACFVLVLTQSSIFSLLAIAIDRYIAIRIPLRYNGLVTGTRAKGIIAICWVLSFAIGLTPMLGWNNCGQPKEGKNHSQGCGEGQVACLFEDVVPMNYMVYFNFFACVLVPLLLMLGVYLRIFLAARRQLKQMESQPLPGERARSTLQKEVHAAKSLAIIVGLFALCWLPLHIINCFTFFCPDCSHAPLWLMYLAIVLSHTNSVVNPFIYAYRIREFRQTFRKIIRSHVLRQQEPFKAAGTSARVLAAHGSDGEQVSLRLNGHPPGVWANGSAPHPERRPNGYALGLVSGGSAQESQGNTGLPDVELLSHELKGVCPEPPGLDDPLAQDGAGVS

Row | Structure (SMILES) | inhibition [1] [%] | Ki (Adenosine receptor A3) [nM] | Ki (Adenosine receptor A1 [4]) [nM] | inhibition [13] [%] | also measured
1 | CCOC(=O)c1nc2c(O)nc3ccc([N+](=O)[O-])cc3n2n1 | 7.4 |  |  |  | inhibition [2]: 0%; inhibition [3]: 58%
2 | CCOC(=O)c1nc2c(=O)n(CC)c3ccccc3n2n1 |  |  |  |  | inhibition [9]: 13.3%; inhibition [2]: 0%; inhibition [7]: 20.5%
3 | COc1ccc(-c2nc3c(O)nc4ccccc4n3n2)cc1 |  |  |  |  | inhibition [9]: 0%; inhibition [12]: 32%; inhibition [8]: 49%
4 | CCOC(=O)c1nc2c(N)nc3ccc(Cl)cc3n2n1 |  |  | 5 |  | inhibition [2]: 15%; Ki [11]: 4.9 µM
5 | CCOC(=O)c1nc2c(O)nc3ccc(C)cc3n2n1 | 6.5 |  |  | 41 | 
6 | O=C(O)c1nc2c(O)nc3ccccc3n2n1 |  |  |  |  | inhibition [9]: 10%; inhibition [2]: 6.4%; inhibition [7]: 0%
7 | CCOC(=O)c1nc2c(O)nc3cc(N)ccc3n2n1 | 9 |  |  | 43 | 
8 | O=c1[nH]c2ccc(Cl)cc2n2nc(-c3ccsc3)nc12 |  | 126 | 1000 |  | 
9 | O=c1[nH]c2ccc(Cl)cc2n2nc(-c3cccs3)nc12 |  | 257 |  |  | 
10 | CCOC(=O)c1nc2c(=O)[nH]c3cc(N)ccc3n2n1 |  | 354 |  |  | 
11 | Oc1nc2ccc(Cl)cc2n2nc(-c3cccs3)nc12 |  |  |  |  | inhibition [9]: 54.2%
12 | Oc1nc2ccc(Cl)cc2n2ncnc12 | 23 |  |  | 0 | inhibition [2]: 18.8%
13 | CCOC(=O)c1nc2c(O)nc3ccc(N)cc3n2n1 | 32.7 | 25 |  | 64 | Ratio Ki [6]: > 400; Ratio Ki [10]: > 400; inhibition [12]: 33%; inhibition [8]: 22%
14 | CCOC(=O)c1nc2c(=O)n(C)c3ccc(Cl)cc3n2n1 | 0 |  |  | 8 | inhibition [2]: 60%
15 | Cn1c(=O)c2ncnn2c2cc(Cl)ccc21 | 8.9 |  |  | 11 | inhibition [2]: 0%
16 | CCOC(=O)c1nc2c(=O)[nH]c3ccc(Cl)cc3n2n1 |  | 557 |  |  | 
17 | CCOC(=O)c1nc2c(O)nc3cc(Cl)ccc3n2n1 | 15.2 | 340 |  | 48 | 
18 | CCOC(=O)c1nc2c(=O)n(C(=O)OCC)c3ccccc3n2n1 | 4 | 28.2 |  | 14 | Ratio Ki [6]: > 350; Ratio Ki [10]: > 350; inhibition [12]: 12%; inhibition [8]: 9%
19 | CCOC(=O)c1nc2c(=O)[nH]c3ccc(NC(C)=O)cc3n2n1 |  | 673 | 14200 |  | 
20 | O=C(NCc1ccccc1)c1nc2c(=O)[nH]c3ccccc3n2n1 |  | 82 | 578 |  | Ki (Adenosine receptor A1 [5]): 205 nM
21 | CCOC(=O)c1nc2c(=O)n(O)c3ccccc3n2n1 |  |  |  |  | inhibition [9]: 6.9%; inhibition [2]: 20%; inhibition [7]: 2%
22 | CCOC(=O)c1nc2c(=O)[nH]c3ccc(C)cc3n2n1 |  | 108 |  |  | 
23 | CCOC(=O)c1nc2c(=O)n(C)c3ccccc3n2n1 |  | 820 |  | 6.4 | 

Further lines, with some results ahead:

Row | inhibition [1] [%] | Ki (Adenosine receptor A3) [nM] | Ki (Adenosine receptor A1 [4]) [nM] | inhibition [13] [%] | Structure (SMILES) | also measured
24 |  | 163 | 2400 |  | Oc1nc2ccc(Cl)cc2n2nc(-c3ccccc3)nc12 | 
25 |  | 2 | 2940 |  | Oc1nc2ccccc2n2nc(-c3cccs3)nc12 | Ki (Adenosine receptor A1 [5]): 2 nM; Ratio Ki [6]: 1; inhibition [7]: 54%
26 |  | 2.9 | 150 |  | COc1ccc(-c2nc3c(N)nc4ccc(Cl)cc4n3n2)cc1 | Ki (Adenosine receptor A1 [5]): 36 nM; inhibition [8]: 21%
27 | 7 |  |  |  | Oc1nc2ccccc2n2nc(-c3ccccc3)nc12 | 
28 |  | 6 | 3660 |  | Oc1nc2ccc(Cl)cc2n2nc(-c3ccco3)nc12 | Ki (Adenosine receptor A1 [5]): 2740 nM; Ratio Ki [6]: 457; Ratio Ki [10]: > 1700; inhibition [8]: 33%; Ki [11]: 5.16 µM
29 | 17 |  |  | 15 | NC(=O)c1nc2c(O)nc3ccccc3n2n1 | inhibition [2]: 32%
30 | 0 |  |  | 18 | Cn1c(=O)c2nc(-c3ccccc3)nn2c2cc(Cl)ccc21 | inhibition [2]: 19%
31 | 27 |  |  |  | O=C(NCc1ccccc1)c1nc2c(O)nc3ccccc3n2n1 | Ratio Ki [6]: 2.5
32 |  | 111 | 525 |  | Cc1ccc2[nH]c(=O)c3nc(-c4ccccc4)nn3c2c1 | 
33 | 47 | 51.6 | 3220 |  | O=C(OCc1ccccc1)c1nc2c(O)nc3ccccc3n2n1 | Ratio Ki [6]: > 200; Ratio Ki [10]: > 200; inhibition [12]: 33%; inhibition [8]: 27%
34 |  | 308 | 508 |  | Cc1ccc2c(c1)n1nc(-c3ccccc3)nc1c(=O)n2C | 
35 |  | 33 |  |  | Oc1nc2ccccc2n2nc(-c3ccco3)nc12 | Ki (Adenosine receptor A1 [5]): 1930 nM
36 | 25 |  |  |  | Cc1ccc2nc(O)c3nc(-c4ccccc4)nn3c2c1 | 
37 | 20 |  |  | 29 | Oc1nc2ccccc2n2ncnc12 | inhibition [2]: 53%
38 | 3.6 | 70.8 |  | 26 | CCOC(=O)c1nc2c(O)nc3ccccc3n2n1 | Ratio Ki [6]: > 150; Ratio Ki [10]: > 150; inhibition [12]: 5%; inhibition [8]: 0%
39 | 2.9 | 420 |  | 0 | CC(C)OC(=O)c1nc2c(O)nc3ccccc3n2n1 | 
40 | 8.8 |  | 1080 |  | Cn1c(=O)c2nc(-c3ccccc3)nn2c2ccccc21 | inhibition [2]: 30%
41 |  | 396 | 268 |  | O=c1[nH]c2ccccc2n2nc(-c3ccccc3)nc12 | 
42 |  | 25.8 | 1060 |  | COc1ccc(-c2nc3c(=O)[nH]c4ccc(Cl)cc4n3n2)cc1 | Ki (Adenosine receptor A1 [5]): 3.29 nM
43 |  | 78 | 1950 |  | Oc1nc2ccc(Cl)cc2n2nc(-c3ccoc3)nc12 | Ki (Adenosine receptor A1 [5]): 125 nM; Ratio Ki [6]: 1.6; inhibition [7]: 25.3%
44 |  |  |  | 20 | CCOC(=O)c1nc2c(O)nc3ccc(Cl)cc3n2n1 | inhibition [7]: 7%
45 |  | 2.5 | 1440 |  | COc1ccc(-c2nc3c(O)nc4ccc(C)cc4n3n2)cc1 | Ki (Adenosine receptor A1 [5]): 2.86 nM; Ratio Ki [6]: 1.1; inhibition [7]: 5%
46 |  | 91.4 | 50 |  | Nc1nc2ccc(Cl)cc2n2nc(-c3ccccc3)nc12 | 
